Source: US20160206633A1, “dhS1P AND USE OF SAME AS AN ANTICANCER THERAPEUTIC AND IMMUNOMODULATOR” (Penn State Research Foundation, Inc., priority 2013, published 2016)

Legend:
[1] = system: sphingolipids in tumor and serum; test: Lipidomics (LC-MS3) of sphingolipids in tumors and serum of treated tumor-bearing mice; assay type: in vivo; settings: generally
Procedure: To explore how PhotoImmunoNanoTherapy could be regulating the immune system, an analysis of the “sphingolipidome” was studied in tumors and serum collected from treated tumor-bearing mice. As PhotoImmunoNanoTherapy modulated the immune system, and was efficacious in both athymic nude mice and BALB/cJ mice, in depth “sphingolipidomic” studies were performed in athymic nude mice bearing MDA-MB-231 tumors to focus more precisely on mediation of T-cell-independent immunity as well as BALB/cJ mice bearing 410.4 tumors (FIG. 5A-F). […] Intriguingly, an increase in tumor S1P was observed as a function of PhotoImmunoNanoTherapy in both models (FIG. 5D), as well as an increase in the precursor sphingosine in the athymic nude mouse model (MDA-MB-231 tumor) (FIG. 5C). […] Of particular interest, the mass levels of phosphorylated sphingolipid species were much higher in serum than in tumor tissue possibly reflective of a release of phosphorylated sphingolipids in response to PhotoImmunoNanoTherapy. Intriguingly, the increase in the amount of dhS1P was more dramatic than the increase in S1P. In the MDA-MB-231, BxPC-3, and SAOS-2-LM7 models there were a 65%, 79%, and 43% increase in dhS1P, respectively, and these compared with respective increases in S1P of only 29%, 27%, and 10%. […]

[2] = system: splenic hematopoietic progenitors (Lineage-Sca-1+CD117+); test: Isolated splenic hematopoietic progenitors exposed to dhS1P, multicolor flow cytometry; assay type: cell-based, athymic nude mice; settings: 5 μM, 24-hour culture
Procedure: (A) Splenic IMCs (Gr-1+CD11b+, also defined as MDSCs: myeloid-derived suppressor cells) were isolated from MDA-MB-231 tumor-bearing athymic nude mice and exposed to BSA, S1P (5 μM), or dhS1P (5 μM). Following 24-hour culture incubation, cells were labeled with specific antibodies and analyzed by multicolor flow cytometry (red: IMCs; blue: possible B-cells). (B) Splenic IMCs were isolated from MDA-MB-231 tumor-bearing athymic nude mice and cultured (5×10^4 cells/mL) in GEMM-supportive semi-solid media with BSA, S1P (5 μM), or dhS1P (5 μM). GEMM colonies (multipotent myeloid progenitor cells) were visualized and counted after 3 weeks of culture. ANOVA, *p<0.01 compared to no treatment or BSA-treatment, ***p<0.001 compared to S1P-treatment, n≧3. (C) Splenic hematopoietic progenitors (Lineage-Sca-1+CD117+) were isolated from MDA-MB-231 tumor-bearing athymic nude mice and exposed to BSA, S1P (5 μM), or dhS1P (5 μM). Following 24-hour culture incubation, cells were labeled with specific antibodies and analyzed by multicolor flow cytometry.
Splenocytes were harvested from tumor-bearing mice by mechanical disruption in red blood cell lysis buffer. Splenocytes were washed, and resuspended in PBS with Mouse BD Fc Block (1 μg per 1×10^6 splenocytes), and incubated for 15 minutes at 4° C. For IMC isolation, antibodies targeting Gr-1 (FITC) and CD11b (PE-Cy7) were added. […]

[3] = system: Gr-1+CD11b+ MDSC-like cells from MaFIA mice; test: Lineage tracing: MDSC-like cells from tumor-bearing MaFIA mice exposed to dhS1P, flow cytometry; assay type: cell-based, MaFIA mice (C57BL/6J background); parameters: dose or concentration left out as unconfirmed
Source text: Gr-1+CD1 b+MDSC-like cells were isolated by high-speed cell sorting (85-95% purity) from the splenocytes of tumor-bearing MaFIA (Macrophage Fas-Induced Apoptosis) mice. These mice are on the C57BL/6J background and contain a transgene expressing both an inducible apoptosis feature as well as EGFP (enhanced green fluorescent protein). This transgene is expressed from the Csfr1 promoter (CD115), which restricts expression of the transgene to the myeloid lineage. Isolated MDSC-like cells were exposed to dhS1P ([…]) for 24 hours, and flow cytometry was performed to confirm both the disappearance of MDSC-like cells (Gr-1+CD11b+), and the appearance of a lymphocyte population (CD19+CD45R B220+). Lineage tracing using the EGFP feature of the transgene verified that dhS1P-induced lymphocytes (blue population) are EGFP negative and therefore not of myeloid-origin. This is in direct contrast with the EGFP positive MDSC-like cells (red population).

`CCCCCCCCCCCCCCC[C@@H](O)[C@@H](N)COP(=O)(O)O` [dhS1P, dihydrosphingosine-1-phosphate] was tested, and the “Serum levels measured in the experiments” value [1] was “around 0.005 mg/kg”, the “CD19+CD45R B220+ cellular population from isolated hematopoietic progenitors” value [2] was “mediated the expansion” and the “Lymphocyte population (CD19+CD45R B220+)” value [3] was “appearance”. For the same compound, the “MDSC-like cells (Gr-1+CD11b+)” value [3] was “disappearance”.
